Experiments:
Micrococcus luteus [1] = test: Antimicrobial activity against Micrococcus luteus assessed as inhibition of microbial growth at 0.03 to 3.33 ug/ml; assay type: functional; parameters: scale not given: the % may be the effect or the level left; conditions: dose 0.03-3.33 µg/ml; at 0.03 to 3.33 µg/mL
Micrococcus luteus [2] = test: Antimicrobial activity against Micrococcus luteus assessed as inhibition of microbial growth; assay type: functional

Compound	Activity (Micrococcus luteus [1]) [%]	MIC (Micrococcus luteus [2]) [µg/mL]
CO[C@]1(C)C[C@H](O[C@H]2[C@H](C)[C@@H](O[C@@H]3O[C@H](C)C[C@](O)(C(C)=O)[C@H]3O)[C@@H](C)C[C@](C)(O)C(=O)[C@H](C)[C@@H](OC(C)=O)[C@@H](C)[C@@H]([C@@H](C)[C@H](C)O)OC(=O)[C@@H]2C)O[C@@H](C)[C@H]1OC(C)=O	50	
CO[C@H]1C[C@@H](C)O[C@@H](O[C@@H]2[C@@H](C)[C@H](O[C@H]3C[C@@](C)(OC)[C@H](OC(C)=O)[C@H](C)O3)[C@@H](C)C(=O)O[C@H]([C@@H](C)[C@H](C)O)[C@H](C)[C@H](OC(C)=O)[C@@H](C)C(=O)[C@@](C)(O)C[C@@H]2C)[C@@H]1O		1
